# Test results from PubChem BioAssay (NCI).
#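 All cell lines were grown in 96-well plates and treated with compound for 48 hours. GI50 marks 50% less growth. TGI: concentration producing complete growth inhibition.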
# Key:
# Test in all cases: inhibition of tumour cell growth, NCI panel, 48 h
# [1] = test system: HL-60(TB) leukemia
# [2] = test system: U251 CNS
# [3] = test system: HCC-2998 colon
# [4] = test system: A498 renal
# [5] = test system: PC-3 prostate
# [6] = test system: MDA-MB-231 breast
# [7] = test system: NCI/ADR-RES ovarian
# [8] = test system: OVCAR-3 ovarian
# [9] = test system: RPMI-8226 leukemia
# [10] = test system: M14 melanoma
# [11] = test system: HCT-15 colon
# [12] = test system: EKVX NSCLC
# [13] = test system: SK-MEL-28 melanoma
# [14] = test system: BT-549 breast
# [15] = test system: MCF7 breast
# [16] = test system: NCI-H522 lung
# [17] = test system: 786-0 renal
# [18] = test system: CCRF-CEM leukemia
# [19] = test system: MDA-MB-435
# [20] = test system: NCI-H226 lung
# [21] = test system: HOP-62 NSCLC
# [22] = test system: UO-31 renal
# [23] = test system: SK-MEL-2 melanoma
# [24] = test system: DU-145 prostate
# [25] = test system: SNB-19 CNS
# [26] = test system: CAKI-1 renal
# [27] = test system: OVCAR-4 ovarian
# [28] = test system: NCI-H23 lung
# [29] = test system: SK-MEL-5 melanoma
# [30] = test system: OVCAR-5 ovarian
# [31] = test system: MALME-3M melanoma
# [32] = test system: SF-539 CNS
# [33] = test system: SN12C renal
# [34] = test system: K-562 leukemia
# [35] = test system: RXF 393 renal
# [36] = test system: UACC-257 melanoma
# [37] = test system: SNB-75 CNS
# [38] = test system: UACC-62 melanoma
# [39] = test system: TK-10 renal
# [40] = test system: OVCAR-8 ovarian
# [41] = test system: SW-620 colon
# [42] = test system: HOP-92 NSCLC
# [43] = test system: HT29 colon
# [44] = test system: SF-295 CNS
# [45] = test system: COLO 205 colon
# [46] = test system: ACHN renal
# [47] = test system: HCT-116 colon
# [48] = test system: SF-268 CNS
# [49] = test system: A549 NSCLC
# [50] = test system: NCI-H460 lung
# [51] = test system: SR leukemia
# [52] = test system: IGROV1 ovarian
# [53] = test system: HS 578T breast
# [54] = test system: LOX IMVI melanoma
# [55] = test system: SK-OV-3 ovarian
# [56] = test system: MOLT-4 leukemia
# [57] = test system: KM12 colon
smiles,measurement,setting,value
COc1cc2c(cc1O)CC[C@@H]1[C@@H]2CC[C@]2(C)[C@@H](OCCCN(C)C)CC[C@@H]12,GI50,[1],96.8 nM
same,TGI,[1],203 nM
same,GI50,[2],126 nM
same,TGI,[2],334 nM
same,GI50,[3],130 nM
same,TGI,[3],346 nM
same,GI50,[4],278 nM
same,TGI,[4],901 nM
same,GI50,[5],183 nM
same,TGI,[5],748 nM
same,GI50,[6],104 nM
same,TGI,[6],219 nM
same,GI50,[7],133 nM
same,TGI,[7],440 nM
same,GI50,[8],155 nM
same,TGI,[8],543 nM
same,GI50,[9],126 nM
same,TGI,[9],301 nM
same,GI50,[10],93.3 nM
same,TGI,[10],190 nM
same,GI50,[11],125 nM
same,TGI,[11],558 nM
same,GI50,[12],208 nM
same,TGI,[12],958 nM
same,GI50,[13],102 nM
same,TGI,[13],243 nM
same,GI50,[14],116 nM
same,TGI,[14],394 nM
same,GI50,[15],148 nM
same,TGI,[15],439 nM
same,GI50,[16],99.9 nM
same,TGI,[16],248 nM
same,GI50,[17],90.5 nM
same,TGI,[17],201 nM
same,GI50,[18],178 nM
same,TGI,[18],556 nM
same,GI50,[19],89.9 nM
same,TGI,[19],182 nM
same,GI50,[20],617 nM
same,TGI,[20],1570 nM
same,GI50,[21],182 nM
same,TGI,[21],728 nM
same,GI50,[22],224 nM
same,TGI,[22],860 nM
same,GI50,[23],76.9 nM
same,TGI,[23],198 nM
same,GI50,[24],161 nM
same,TGI,[24],603 nM
same,GI50,[25],303 nM
same,TGI,[25],1060 nM
same,GI50,[26],271 nM
same,TGI,[26],904 nM
same,GI50,[27],180 nM
same,TGI,[27],871 nM
same,GI50,[28],119 nM
same,TGI,[28],552 nM
same,GI50,[29],83.3 nM
same,TGI,[29],154 nM
same,GI50,[30],296 nM
same,TGI,[30],1140 nM
same,GI50,[31],90.2 nM
same,TGI,[31],194 nM
same,GI50,[32],86.7 nM
same,TGI,[32],172 nM
same,GI50,[33],304 nM
same,TGI,[33],1080 nM
same,GI50,[34],100 nM
same,TGI,[34],331 nM
same,GI50,[35],88.9 nM
same,TGI,[35],226 nM
same,GI50,[36],104 nM
same,TGI,[36],206 nM
same,GI50,[37],76.8 nM
same,TGI,[37],273 nM
same,GI50,[38],110 nM
same,TGI,[38],269 nM
same,GI50,[39],154 nM
same,TGI,[39],496 nM
same,GI50,[40],196 nM
same,TGI,[40],733 nM
same,GI50,[41],160 nM
same,TGI,[41],513 nM
same,GI50,[42],112 nM
same,TGI,[42],473 nM
same,GI50,[43],96.9 nM
same,TGI,[43],233 nM
same,GI50,[44],98 nM
same,TGI,[44],208 nM
same,GI50,[45],268 nM
same,TGI,[45],1030 nM
same,GI50,[46],164 nM
same,TGI,[46],527 nM
same,GI50,[47],98.1 nM
same,TGI,[47],381 nM
same,GI50,[48],182 nM
same,TGI,[48],801 nM
same,GI50,[49],165 nM
same,TGI,[49],650 nM
same,GI50,[50],163 nM
same,TGI,[50],550 nM
same,GI50,[51],120 nM
same,TGI,[51],390 nM
same,GI50,[52],523 nM
same,TGI,[52],1430 nM
same,GI50,[53],210 nM
same,TGI,[53],1190 nM
same,GI50,[54],90.6 nM
same,TGI,[54],173 nM
same,GI50,[55],198 nM
same,TGI,[55],675 nM
same,GI50,[56],145 nM
same,TGI,[56],555 nM
COc1ccc(/C=C/C(=O)c2ccc(Cl)cc2Cl)cc1,GI50,[1],9980 nM
same,TGI,[1],38100 nM
same,GI50,[2],13200 nM
same,TGI,[2],31300 nM
same,GI50,[4],10700 nM
same,TGI,[4],24200 nM
same,GI50,[5],6100 nM
same,TGI,[5],21900 nM
same,GI50,[6],20500 nM
same,TGI,[6],46700 nM
same,GI50,[7],15900 nM
same,TGI,[7],41500 nM
same,GI50,[8],18900 nM
same,TGI,[8],39000 nM
same,GI50,[9],3030 nM
same,TGI,[9],6310 nM
same,GI50,[11],12200 nM
same,TGI,[11],37000 nM
same,GI50,[12],20100 nM
same,TGI,[12],47300 nM
same,GI50,[13],34000 nM
same,TGI,[13],73100 nM
same,GI50,[14],16700 nM
same,TGI,[14],36800 nM
same,GI50,[15],9750 nM
same,TGI,[15],27500 nM
same,GI50,[16],30100 nM
same,TGI,[16],> 100000 nM
same,GI50,[17],13900 nM
same,TGI,[17],30700 nM
same,GI50,[19],11900 nM
same,TGI,[19],44500 nM
same,GI50,[20],20400 nM
same,TGI,[20],46600 nM
same,GI50,[21],20300 nM
same,TGI,[21],48800 nM
same,GI50,[57],13800 nM
same,TGI,[57],40500 nM
same,GI50,[22],29100 nM
same,TGI,[22],94500 nM
same,GI50,[23],24400 nM
same,TGI,[23],70900 nM
same,GI50,[24],16000 nM
same,TGI,[24],33100 nM
same,GI50,[25],21500 nM
same,TGI,[25],75300 nM
same,GI50,[26],23700 nM
same,TGI,[26],50100 nM
same,GI50,[28],18800 nM
same,TGI,[28],42800 nM
same,GI50,[29],17900 nM
same,TGI,[29],39000 nM
same,GI50,[30],25500 nM
same,TGI,[30],78500 nM
same,GI50,[32],18900 nM
same,TGI,[32],37800 nM
same,GI50,[33],20400 nM
same,TGI,[33],43200 nM
same,GI50,[34],3370 nM
same,TGI,[34],> 100000 nM
same,GI50,[35],12700 nM
same,TGI,[35],29900 nM
same,GI50,[37],22200 nM
same,TGI,[37],44100 nM
same,GI50,[38],15000 nM
same,TGI,[38],30300 nM
same,GI50,[39],18900 nM
same,TGI,[39],37400 nM
same,GI50,[40],21300 nM
same,TGI,[40],55900 nM
same,GI50,[41],9360 nM
same,TGI,[41],> 100000 nM
same,GI50,[43],33800 nM
same,TGI,[43],> 100000 nM
same,GI50,[44],20400 nM
same,TGI,[44],53400 nM
same,GI50,[45],32000 nM
same,TGI,[45],> 100000 nM
same,GI50,[46],17300 nM
same,TGI,[46],33800 nM
same,GI50,[47],9050 nM
same,TGI,[47],24500 nM
same,GI50,[48],19000 nM
same,TGI,[48],41100 nM
same,GI50,[49],21400 nM
same,TGI,[49],53600 nM
same,GI50,[50],19200 nM
same,TGI,[50],41300 nM
same,GI50,[51],1880 nM
same,TGI,[51],> 100000 nM
same,GI50,[52],20500 nM
same,TGI,[52],59000 nM
same,GI50,[53],26200 nM
same,TGI,[53],65400 nM
same,GI50,[54],15900 nM
same,TGI,[54],32100 nM
same,GI50,[56],3530 nM
same,TGI,[56],> 100000 nM
